The source made the active and inactive calls. No cut-off for these calls is given here.
How the values were obtained:
Raji [1] = test: Antiproliferative activity against human Raji cells after 48 hrs by MTT assay; type: functional, cell-based
HL-60 [2] = test: Antiproliferative activity against human HL60 cells after 48 hrs by MTT assay; type: functional, cell-based; conditions: HL-60, 48 h
K562 [3] = test: Antiproliferative activity against human K562 cells after 48 hrs by MTT assay; type: functional, cell-based; conditions: K562, 48 h
K562 [4] = test: Inhibition of PI3K/Akt/mTOR pathway in human K562 cells assessed as reduction in Akt phosphorylation at Ser-473 residue at 1 uM after 24 hrs by Western blot analysis; type: cell-based
[5] = target: Tyrosine-protein kinase BTK (Homo sapiens, UniProt Q06187); test: Inhibition of recombinant full length human N-terminal His tagged BTK expressed in baculovirus infected Sf9 cells using poly (4:1 Glu, Tyr) as substrate after 60 mins by ADP-Glo assay
Chain of Tyrosine-protein kinase BTK (Q06187 whole entry): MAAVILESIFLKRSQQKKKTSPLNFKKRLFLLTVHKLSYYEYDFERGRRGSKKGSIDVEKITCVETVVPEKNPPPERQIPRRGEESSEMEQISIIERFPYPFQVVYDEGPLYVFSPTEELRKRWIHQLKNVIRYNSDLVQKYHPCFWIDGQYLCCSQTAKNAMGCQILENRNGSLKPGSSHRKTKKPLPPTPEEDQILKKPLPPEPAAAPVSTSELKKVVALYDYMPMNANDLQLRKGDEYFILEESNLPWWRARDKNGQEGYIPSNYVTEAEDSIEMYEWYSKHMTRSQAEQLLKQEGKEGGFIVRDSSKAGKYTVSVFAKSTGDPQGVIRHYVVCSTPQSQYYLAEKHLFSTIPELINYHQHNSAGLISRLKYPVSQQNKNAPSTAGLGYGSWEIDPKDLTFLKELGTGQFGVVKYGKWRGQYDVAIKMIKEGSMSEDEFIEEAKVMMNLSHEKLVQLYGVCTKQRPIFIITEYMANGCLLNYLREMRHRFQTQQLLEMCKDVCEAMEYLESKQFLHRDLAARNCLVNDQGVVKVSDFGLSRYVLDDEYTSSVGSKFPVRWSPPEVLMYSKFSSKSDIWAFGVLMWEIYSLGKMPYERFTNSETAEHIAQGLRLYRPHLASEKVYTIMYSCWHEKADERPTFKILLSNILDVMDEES

[6] = target: PI3-kinase p110-delta/p85-alpha (Homo sapiens) (UniProt P27986+O00329); test: Inhibition of recombinant human full length N-terminal His-tagged PI3K p110delta/p85alpha at 200 nM using lipid substrate after 60 mins by ADP-Glo assay relative to control; type: protein-complex assay
Raji [7] = test: Antiproliferative activity against human Raji cells at 40 uM after 48 hrs by MTT assay relative to control; type: functional
K562 [8] = test: Antiproliferative activity against human K562 cells at 40 uM after 48 hrs by MTT assay relative to control; type: functional
[9] = Inhibition of PI3K (unknown origin); set-up: species or system Homo sapiens
[10] = target: PI3-kinase p110-delta/p85-alpha (Homo sapiens, UniProt O00329); test: Inhibition of recombinant human full length N-terminal His-tagged PI3K p110delta/p85alpha using lipid substrate after 60 mins by ADP-Glo assay; type: protein-complex assay
[11] = target: PI3-kinase p110-alpha/p85-alpha (Homo sapiens, UniProt P42336); test: Inhibition of recombinant human full length His-tagged PI3K p110alpha/p85alpha expressed in baculovirus expression system using lipid substrate after 60 mins by ADP-Glo assay
Chain of PI3-kinase p110-alpha/p85-alpha (P27986 whole entry): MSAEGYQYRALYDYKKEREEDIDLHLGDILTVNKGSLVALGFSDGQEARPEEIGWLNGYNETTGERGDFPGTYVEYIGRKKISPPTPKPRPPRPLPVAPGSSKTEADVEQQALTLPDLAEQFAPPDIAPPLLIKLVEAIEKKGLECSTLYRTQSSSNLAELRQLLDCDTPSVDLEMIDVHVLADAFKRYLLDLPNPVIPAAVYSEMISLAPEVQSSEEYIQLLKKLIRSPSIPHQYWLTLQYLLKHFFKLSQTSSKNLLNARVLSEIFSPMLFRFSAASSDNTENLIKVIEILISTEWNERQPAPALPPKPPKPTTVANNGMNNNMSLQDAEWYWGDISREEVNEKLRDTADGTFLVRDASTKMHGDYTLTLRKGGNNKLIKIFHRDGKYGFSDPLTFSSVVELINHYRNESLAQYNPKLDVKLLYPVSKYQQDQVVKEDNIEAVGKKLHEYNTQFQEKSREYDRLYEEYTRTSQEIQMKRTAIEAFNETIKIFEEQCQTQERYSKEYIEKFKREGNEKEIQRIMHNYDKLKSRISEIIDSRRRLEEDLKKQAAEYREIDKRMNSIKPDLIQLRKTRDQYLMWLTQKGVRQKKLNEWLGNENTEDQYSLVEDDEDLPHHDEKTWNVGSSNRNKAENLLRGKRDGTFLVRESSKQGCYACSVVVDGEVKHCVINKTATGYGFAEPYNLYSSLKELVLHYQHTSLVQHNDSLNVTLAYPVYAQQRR
Chain of PI3-kinase p110-alpha/p85-alpha (P42336 whole entry): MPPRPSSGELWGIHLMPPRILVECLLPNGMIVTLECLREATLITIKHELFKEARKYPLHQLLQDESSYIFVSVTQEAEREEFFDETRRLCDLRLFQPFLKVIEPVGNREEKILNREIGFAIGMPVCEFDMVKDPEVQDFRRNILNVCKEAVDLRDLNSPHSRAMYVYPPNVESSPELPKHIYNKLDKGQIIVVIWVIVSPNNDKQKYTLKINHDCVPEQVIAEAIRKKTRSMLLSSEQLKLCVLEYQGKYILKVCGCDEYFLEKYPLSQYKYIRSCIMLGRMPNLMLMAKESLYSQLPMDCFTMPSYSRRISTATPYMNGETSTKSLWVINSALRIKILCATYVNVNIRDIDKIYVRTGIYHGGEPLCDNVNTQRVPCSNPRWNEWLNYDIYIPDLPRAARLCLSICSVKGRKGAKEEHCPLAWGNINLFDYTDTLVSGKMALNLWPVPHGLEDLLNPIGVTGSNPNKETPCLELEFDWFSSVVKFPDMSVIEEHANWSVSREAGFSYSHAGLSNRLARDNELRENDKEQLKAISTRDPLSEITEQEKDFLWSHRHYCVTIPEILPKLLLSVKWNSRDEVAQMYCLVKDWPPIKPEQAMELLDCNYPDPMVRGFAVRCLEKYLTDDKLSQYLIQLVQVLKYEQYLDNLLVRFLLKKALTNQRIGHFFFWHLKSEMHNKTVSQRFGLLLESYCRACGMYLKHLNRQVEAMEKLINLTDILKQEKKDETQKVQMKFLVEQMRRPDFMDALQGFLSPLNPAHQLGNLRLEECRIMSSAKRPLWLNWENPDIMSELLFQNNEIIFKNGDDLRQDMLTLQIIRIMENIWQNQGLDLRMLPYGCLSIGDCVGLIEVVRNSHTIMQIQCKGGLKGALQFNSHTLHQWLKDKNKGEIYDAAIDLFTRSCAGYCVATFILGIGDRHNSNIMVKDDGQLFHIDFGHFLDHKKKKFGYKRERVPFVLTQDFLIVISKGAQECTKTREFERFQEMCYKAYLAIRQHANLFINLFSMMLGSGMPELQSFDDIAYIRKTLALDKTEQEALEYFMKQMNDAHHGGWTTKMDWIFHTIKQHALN

PI3K p110 beta/p85 alpha = PI3K p110 beta/p85 alpha (Homo sapiens, UniProt P42338); test: Inhibition of recombinant full length human N-terminal His6-tagged PI3K p110beta/p85alpha expressed in baculovirus infected Sf21 cells using lipid substrate after 60 mins by ADP-Glo assay
Chain of PI3K p110 beta/p85 alpha (P27986 whole entry, canonical isoform): as the sequence (P27986 whole entry) above
Chain of PI3K p110 beta/p85 alpha (P42338 whole entry, canonical isoform): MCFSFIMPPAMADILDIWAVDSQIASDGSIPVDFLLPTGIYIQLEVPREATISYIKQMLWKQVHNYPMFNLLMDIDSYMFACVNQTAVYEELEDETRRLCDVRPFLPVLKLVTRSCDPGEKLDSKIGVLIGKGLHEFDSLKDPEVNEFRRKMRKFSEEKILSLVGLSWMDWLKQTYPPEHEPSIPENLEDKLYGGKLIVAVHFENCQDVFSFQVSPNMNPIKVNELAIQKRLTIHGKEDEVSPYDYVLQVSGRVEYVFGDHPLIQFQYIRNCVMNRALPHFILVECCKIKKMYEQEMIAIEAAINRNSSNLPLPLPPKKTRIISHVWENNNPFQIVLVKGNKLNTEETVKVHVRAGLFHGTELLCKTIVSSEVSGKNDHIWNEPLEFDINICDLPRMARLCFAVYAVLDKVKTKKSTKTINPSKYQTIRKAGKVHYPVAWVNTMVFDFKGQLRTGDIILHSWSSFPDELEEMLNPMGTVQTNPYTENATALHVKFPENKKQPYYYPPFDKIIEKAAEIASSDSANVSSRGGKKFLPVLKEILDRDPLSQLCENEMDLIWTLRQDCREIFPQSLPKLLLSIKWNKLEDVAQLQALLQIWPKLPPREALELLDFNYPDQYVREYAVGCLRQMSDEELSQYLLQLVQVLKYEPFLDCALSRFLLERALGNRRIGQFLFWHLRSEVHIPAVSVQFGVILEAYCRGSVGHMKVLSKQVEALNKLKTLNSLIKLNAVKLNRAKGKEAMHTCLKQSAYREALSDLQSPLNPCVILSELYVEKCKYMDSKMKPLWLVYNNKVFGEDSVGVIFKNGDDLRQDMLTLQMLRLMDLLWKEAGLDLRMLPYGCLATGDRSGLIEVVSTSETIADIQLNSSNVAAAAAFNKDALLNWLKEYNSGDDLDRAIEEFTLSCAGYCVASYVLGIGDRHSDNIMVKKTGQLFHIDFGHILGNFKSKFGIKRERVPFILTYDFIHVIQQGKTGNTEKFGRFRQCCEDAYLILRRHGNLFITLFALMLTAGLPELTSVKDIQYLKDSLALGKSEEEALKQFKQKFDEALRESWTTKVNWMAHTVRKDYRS

[12] = target: T1, Phosphatidylinositol 4,5-bisphosphate 3-kinase catalytic subunit gamma isoform (Homo sapiens, UniProt P48736); test: Inhibition of recombinant human full length His-tagged PI3K p110gamma expressed in baculovirus expression system using lipid substrate after 60 mins by ADP-Glo assay
T1 sequence (P48736 whole entry, canonical isoform): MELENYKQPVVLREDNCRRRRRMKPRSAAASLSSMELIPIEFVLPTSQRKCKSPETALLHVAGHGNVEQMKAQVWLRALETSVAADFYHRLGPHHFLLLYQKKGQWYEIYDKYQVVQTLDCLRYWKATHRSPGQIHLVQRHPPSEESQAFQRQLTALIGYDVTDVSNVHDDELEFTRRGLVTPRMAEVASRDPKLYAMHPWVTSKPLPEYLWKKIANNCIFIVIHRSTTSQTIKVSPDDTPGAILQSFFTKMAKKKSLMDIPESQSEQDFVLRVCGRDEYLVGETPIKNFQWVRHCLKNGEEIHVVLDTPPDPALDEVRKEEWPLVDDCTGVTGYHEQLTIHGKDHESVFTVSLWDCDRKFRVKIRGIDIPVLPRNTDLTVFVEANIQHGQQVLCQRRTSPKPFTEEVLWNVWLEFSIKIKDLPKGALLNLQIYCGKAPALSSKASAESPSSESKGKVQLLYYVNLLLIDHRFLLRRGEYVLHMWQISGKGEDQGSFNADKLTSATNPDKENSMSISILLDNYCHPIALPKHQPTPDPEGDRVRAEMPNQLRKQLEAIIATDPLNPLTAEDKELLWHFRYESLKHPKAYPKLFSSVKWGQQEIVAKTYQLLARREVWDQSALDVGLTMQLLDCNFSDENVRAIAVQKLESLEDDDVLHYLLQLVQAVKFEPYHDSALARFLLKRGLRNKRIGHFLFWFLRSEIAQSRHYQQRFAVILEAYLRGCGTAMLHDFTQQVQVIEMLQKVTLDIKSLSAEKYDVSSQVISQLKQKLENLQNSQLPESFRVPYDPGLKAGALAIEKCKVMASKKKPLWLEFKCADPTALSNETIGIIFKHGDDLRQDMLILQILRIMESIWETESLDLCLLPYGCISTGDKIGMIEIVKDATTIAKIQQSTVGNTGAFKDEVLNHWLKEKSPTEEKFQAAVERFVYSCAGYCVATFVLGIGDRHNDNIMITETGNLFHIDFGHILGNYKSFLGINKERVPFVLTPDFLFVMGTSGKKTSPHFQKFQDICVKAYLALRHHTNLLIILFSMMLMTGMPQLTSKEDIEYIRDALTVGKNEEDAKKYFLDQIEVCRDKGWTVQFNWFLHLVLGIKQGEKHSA

[13] = target: Serine/threonine-protein kinase mTOR (Homo sapiens, UniProt P42345); test: Inhibition of recombinant human N-terminal FLAG-tagged mTOR (1362-end residues)
HL-60 [14] = test: Antiproliferative activity against human HL60 cells at 40 uM after 48 hrs by MTT assay relative to control; type: functional
[15] = target: Phosphatidylinositol 4,5-bisphosphate 3-kinase catalytic subunit alpha isoform (Homo sapiens, UniProt P42336); test: Inhibition of PI3Kalpha (unknown origin)
Chain of Phosphatidylinositol 4,5-bisphosphate 3-kinase catalytic subunit alpha isoform (P42336 whole entry, canonical isoform): as the sequence (P42336 whole entry) above

[16] = target: Phosphatidylinositol 4,5-bisphosphate 3-kinase catalytic subunit beta isoform (Homo sapiens, UniProt P42338); test: Inhibition of PI3Kbeta (unknown origin)
Chain of Phosphatidylinositol 4,5-bisphosphate 3-kinase catalytic subunit beta isoform (P42338 whole entry, canonical isoform): as the sequence (P42338 whole entry, canonical isoform) above

[17] = target: T1, Phosphatidylinositol 4,5-bisphosphate 3-kinase catalytic subunit gamma isoform; test: Inhibition of PI3Kgamma (unknown origin)

Structure (SMILES) | IC50 (Raji [1]) [µM] | IC50 (HL-60 [2]) [µM] | IC50 (K562 [3]) [µM] | inhibition [6] | further results
C=CC(=O)N1CCC[C@@H](n2nc(-c3ccc(Oc4ccccc4)cc3)c3c(N)ncnc32)C1 [IBRUTINIB] | 14.2 | 8 | 7.5 | – | –
C=CC(=O)Nc1ccc(-n2c(=O)ccc3oc4ccc(-c5cnn(C)c5)cc4c32)cc1 | 2.4 | 12.6 | 9.6 | 4.8% | Reduction in Akt Ser-473 phosphorylation (K562 [4]): Active; IC50 [5]: 0.217 µM
C=CC(=O)Nc1ccc(-n2c(=O)ccc3oc4ccc(-c5ccc(OC)cc5)cc4c32)cc1 | – | – | – | – | Activity (Raji [7]): inactive; Activity (K562 [8]): 28.3%
COc1ccc(-c2ccc3oc4ccc(=O)n(-c5ccc(NC(=O)CN6CCOCC6)cc5)c4c3c2)cn1 | 13.2 | 4 | 10 | 11.6% | IC50 [5]: 0.2 µM
C=CC(=O)Nc1ccc(-n2c(=O)ccc3oc4ccc(-c5cccc([N+](=O)[O-])c5)cc4c32)cc1 | 25 | 28.2 | – | – | Activity (K562 [8]): 39%
C=CC(=O)N1CCc2ccc(-n3c(=O)ccc4cnc5ccc(-c6cnn(C)c6)cc5c43)cc21 | – | – | – | – | IC50 [9]: 0.69 µM
C=CC(=O)Nc1ccc(-n2c(=O)ccc3oc4ccc(-c5cccnc5)cc4c32)cc1 | 5.2 | 4.2 | 11.1 | 45.8% | Reduction in Akt Ser-473 phosphorylation (K562 [4]): Active; IC50 [5]: 0.136 µM; IC50 [10]: 0.275 µM; IC50 [11]: 0.254 µM; IC50 (PI3K p110 beta/p85 alpha): 0.838 µM; IC50 [12]: 0.684 µM; IC50 [13]: 0.228 µM
Cn1c(=O)n(-c2ccc(C(C)(C)C#N)cc2)c2c3cc(-c4cnc5ccccc5c4)ccc3ncc21 [DACTOLISIB] | 4.3 | 1 | 5.7 | 64.4% | Reduction in Akt Ser-473 phosphorylation (K562 [4]): Active
COc1ccc(-c2ccc3oc4ccc(=O)n(-c5ccc(N)cc5)c4c3c2)cn1 | – | – | – | – | Activity (Raji [7]): 41.5%; Activity (HL-60 [14]): 21.5%; Activity (K562 [8]): 17.6%
C=CC(=O)Nc1ccc(-n2c(=O)ccc3oc4ccc(-c5ccc(C(=O)O)cc5)cc4c32)cc1 | – | – | – | – | Activity (Raji [7]): 38%; Activity (HL-60 [14]): 22.2%; Activity (K562 [8]): inactive
C=CC(=O)Nc1ccc(-n2c(=O)ccc3oc4ccc(-c5ccc(O)cc5)cc4c32)cc1 | 3.9 | 3.9 | 5.7 | 4.2% | –
COc1ccc(-c2ccc3oc4ccc(=O)n(-c5ccc(NC(=O)CN6CCNCC6)cc5)c4c3c2)cn1 | 5.84 | 5.5 | 1.3 | inactive | Reduction in Akt Ser-473 phosphorylation (K562 [4]): Active
CCOC(=O)CNc1ccc(-n2c(=O)ccc3oc4ccc(-c5ccc(OC)nc5)cc4c32)cc1 | – | – | – | – | Activity (Raji [7]): inactive; Activity (HL-60 [14]): 46%; Activity (K562 [8]): 29.4%
COc1ccc(-c2ccc3oc4ccc(=O)n(-c5ccc([N+](=O)[O-])cc5)c4c3c2)cn1 | – | – | – | – | Activity (Raji [7]): inactive; Activity (HL-60 [14]): inactive; Activity (K562 [8]): 28.8%
COc1ccc(-c2ccc3ncc4c(c3c2)n(-c2ccc(N3CCNCC3)c(C(F)(F)F)c2)c(=O)n4C)cn1 [BGT-226 FREE BASE] | – | – | – | – | IC50 [15]: 0.004 µM; IC50 [16]: 0.063 µM; IC50 [17]: 0.038 µM
COc1ccc(-c2ccc3oc4ccc(=O)n(-c5ccc(NC(=O)CN6CCN(C)CC6)cc5)c4c3c2)cn1 | 9.72 | 3.2 | 4.7 | inactive | IC50 [5]: 0.139 µM
COc1ccc(-c2ccc3oc4ccc(=O)n(-c5ccc(NC(=O)CN6CCCCC6)cc5)c4c3c2)cn1 | 8.01 | 4.9 | 2.6 | inactive | Reduction in Akt Ser-473 phosphorylation (K562 [4]): Active; IC50 [5]: 0.106 µM
C=CC(=O)Nc1ccc(-n2c(=O)ccc3oc4ccc(-c5cccc(N)c5)cc4c32)cc1 | 5.3 | 10 | 6.9 | inactive | –
C=CC(=O)Nc1ccc(-n2c(=O)ccc3oc4ccc(-c5cccc6[nH]ccc56)cc4c32)cc1 | 15.7 | 7.3 | 10.2 | – | –

Second part, led by results:

IC50 (Raji [1]) [µM] | IC50 (HL-60 [2]) [µM] | IC50 (K562 [3]) [µM] | inhibition [6] | Structure (SMILES) | further results
6.26 | 3.2 | 3.5 | – | CNCC(=O)Nc1ccc(-n2c(=O)ccc3oc4ccc(-c5ccc(OC)nc5)cc4c32)cc1 | –
39 | – | – | – | COc1ccc(-c2ccc3oc4ccc(=O)n(-c5ccc(NC(C)=O)cc5)c4c3c2)cn1 | Activity (K562 [8]): 47.5%
11.3 | 5.4 | 6.5 | inactive | COc1ccc(-c2ccc3oc4ccc(=O)n(-c5ccc(NC(=O)CN6CCCC6)cc5)c4c3c2)cn1 | IC50 [5]: 0.183 µM
15.3 | 8.4 | 5.9 | – | CCN(CC)CC(=O)Nc1ccc(-n2c(=O)ccc3oc4ccc(-c5ccc(OC)nc5)cc4c32)cc1 | –
– | 17.9 | 31 | inactive | C=CC(=O)Nc1ccc(-n2c(=O)ccc3oc4ccc(-c5ccc(OC)nc5)cc4c32)cc1 | Reduction in Akt Ser-473 phosphorylation (K562 [4]): Active; Activity (Raji [7]): 35%
– | – | 17 | – | COc1ccc(-c2ccc3oc4ccc(=O)n(-c5ccc(NC(=O)C(F)(F)F)cc5)c4c3c2)cn1 | Activity (Raji [7]): 10%; Activity (HL-60 [14]): 35.4%
16.7 | 15.5 | 16.2 | – | COc1ccc(-c2ccc3oc4ccc(=O)n(-c5ccc(NS(C)(=O)=O)cc5)c4c3c2)cn1 | –
39.5 | 12.7 | – | – | COc1ccc(-c2ccc3oc4ccc(=O)n(-c5ccc(NCC(=O)O)cc5)c4c3c2)cn1 | Activity (K562 [8]): 46%
12.8 | 4 | 4.1 | inactive | COc1ccc(-c2ccc3oc4ccc(=O)n(-c5ccc(NC(=O)CN(C)C)cc5)c4c3c2)cn1 | Reduction in Akt Ser-473 phosphorylation (K562 [4]): Active; IC50 [5]: 0.237 µM

Source: ChEMBL document CHEMBL4229497, “Design and synthesis of benzofuro[3,2-b]pyridin-2(1H)-one derivatives as anti-leukemia agents by inhibiting Btk and PI3Kδ” (Bioorg Med Chem, 2018)
